Assay results as given in article PMC12951562, “SH2scan: Mapping SH2 Domain-Ligand Binding Selectivity for Inhibitors and Degraders” (Journal of Medicinal Chemistry, 2026).
Non-standard residues stand in square brackets, D forms with d. Residues, ends and D or L forms follow the SMILES beside them. pY = N[C@@H](Cc1ccc(OP(=O)(O)O)cc1)C(=O)O

Key:
Assay in all cases: biochemical
Type in all cases: binding
[1] = target: T1, PIK3R1(SH2dom.N-term.) (Homo sapiens, UniProt P27986)
T1 construct: SH2dom.N-term. denotes SH2 domain closest to N-terminus of protein; made in house; host or cells: HEK293 (transient transfection, unpurified extract)

[2] = target: T2, PIK3R2(SH2dom.N-term.) (Homo sapiens, UniProt O00459)
T2 construct: SH2dom.N-term. denotes SH2 domain closest to N-terminus of protein; made in house; host or cells: HEK293 (transient transfection, unpurified extract)

[3] = target: T3, PIK3R3(SH2dom.N-term.) (Homo sapiens, UniProt Q92569)
T3 construct: SH2dom.N-term. denotes SH2 domain closest to N-terminus of protein; made in house; host or cells: HEK293 (transient transfection, unpurified extract)

[4] = target: T4, RASA1(SH2dom.N-term.) (Homo sapiens, UniProt P20936)
T4 construct: SH2dom.N-term. denotes SH2 domain closest to N-terminus of protein; made in house; host or cells: HEK293 (transient transfection), unpurified extract
T4 sequence (P20936 181-272 limits assumed): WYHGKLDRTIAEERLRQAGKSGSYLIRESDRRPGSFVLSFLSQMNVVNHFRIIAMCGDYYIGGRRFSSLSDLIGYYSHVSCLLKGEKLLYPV

[5] = target: T5, FRK (Homo sapiens, UniProt P42685); settings: dose-response; read-out: KD
T5 construct: the DNA-tagged SH2 domain concentrations used in this study were <0.1 nM; made in house; host or cells: HEK293 (transient transfection; unpurified extract)

[6] = target: T6, BLK (Homo sapiens, UniProt P51451); settings: dose-response; read-out: KD
T6 construct: the DNA-tagged SH2 domain concentrations used in this study were <0.1 nM; made in house; host or cells: HEK293 (transient transfection; unpurified extract)

[7] = target: T7, FYN (Homo sapiens, UniProt P06241); settings: dose-response; read-out: KD
T7 construct: the DNA-tagged SH2 domain concentrations used in this study were <0.1 nM; made in house; host or cells: HEK293 (transient transfection; unpurified extract)

[8] = target: T8, YES (Homo sapiens, UniProt P07947); settings: dose-response; read-out: KD
T8 construct: the DNA-tagged SH2 domain concentrations used in this study were <0.1 nM; made in house; host or cells: HEK293 (transient transfection; unpurified cell extract)

[9] = target: T9, PTPN6(SH2dom.N-term.) (Homo sapiens, UniProt P29350)
T9 construct: SH2dom.N-term. denotes SH2 domain closest to N-terminus of protein; made in house; host or cells: HEK293 (transient transfection, unpurified extract)
T9 sequence (P29350 4-100 limits assumed): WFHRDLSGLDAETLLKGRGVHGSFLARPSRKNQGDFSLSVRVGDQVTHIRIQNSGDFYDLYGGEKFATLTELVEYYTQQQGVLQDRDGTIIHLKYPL

[10] = target: T10, GADS (Homo sapiens, UniProt O75791)
T10 construct: the DNA-tagged SH2 domain concentrations used in this study were <0.1 nM; made in house; host or cells: HEK293 (transient transfection; unpurified extract)
T10 sequence (O75791 58-149 limits assumed): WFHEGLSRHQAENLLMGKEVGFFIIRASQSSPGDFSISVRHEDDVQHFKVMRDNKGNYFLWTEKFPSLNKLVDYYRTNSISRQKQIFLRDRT

[11] = target: T11, HSH2D (Homo sapiens, UniProt Q96JZ2)
T11 construct: the DNA-tagged SH2 domain concentrations used in this study were <0.1 nM; made in house; host or cells: HEK293 (transient transfection, unpurified extract)
T11 sequence (Q96JZ2 34-125 limits assumed): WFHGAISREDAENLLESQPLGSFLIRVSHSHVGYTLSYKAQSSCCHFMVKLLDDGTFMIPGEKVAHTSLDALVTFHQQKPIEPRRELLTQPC

T1 sequence (P27986 333-428 limits assumed): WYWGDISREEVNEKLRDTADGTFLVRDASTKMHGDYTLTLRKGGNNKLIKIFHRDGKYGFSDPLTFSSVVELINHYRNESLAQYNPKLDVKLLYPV
T5 sequence (P42685 116-208 limits assumed): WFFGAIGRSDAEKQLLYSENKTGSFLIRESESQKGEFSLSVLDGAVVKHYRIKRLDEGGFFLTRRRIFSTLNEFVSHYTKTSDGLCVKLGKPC
T7 sequence (P06241 149-246 limits assumed): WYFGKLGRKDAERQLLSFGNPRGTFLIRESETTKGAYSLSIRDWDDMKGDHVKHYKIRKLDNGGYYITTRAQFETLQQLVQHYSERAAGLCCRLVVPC
T6 sequence (P51451 124-220 limits assumed): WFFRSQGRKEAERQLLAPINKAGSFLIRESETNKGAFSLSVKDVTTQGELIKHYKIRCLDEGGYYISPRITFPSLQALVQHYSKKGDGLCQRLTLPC
T2 sequence (O00459 330-425 limits assumed): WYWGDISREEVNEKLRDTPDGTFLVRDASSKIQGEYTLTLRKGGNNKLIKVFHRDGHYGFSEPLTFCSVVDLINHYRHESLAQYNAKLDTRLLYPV
T8 sequence (P07947 158-255 limits assumed): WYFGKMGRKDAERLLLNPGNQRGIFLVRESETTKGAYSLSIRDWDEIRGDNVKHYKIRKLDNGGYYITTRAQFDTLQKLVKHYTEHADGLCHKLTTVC

## CSCC[C@H](NC(=O)[C@H](CC(=O)O)NC(=O)[C@H](CC(C)C)NC(=O)[C@H](CCSC)NC(=O)[C@@H]1CCCN1C(=O)[C@@H](NC(=O)[C@H](Cc1ccc(OP(=O)(O)O)cc1)NC(=O)[C@H](CC(=O)O)NC(=O)[C@@H](NC(=O)[C@H](CO)NC(=O)[C@H](CCC(=O)O)NC(=O)[C@H](CC(=O)O)NC(=O)[C@H](CCCCN)NC(=O)[C@H](CO)NC(=O)[C@H](CCSC)NC(=O)[C@H](CC(=O)O)NC(C)=O)C(C)C)C(C)C)C(=O)N[C@@H](CCCCN)C(N)=O (Ac-DMSKDESVD[pY]VPMLDMK-NH2)
[1]
  Kd: 41.2 ± 9.77 nM
[2]
  Kd: 46.7 ± 6.22 nM
[3]
  Kd: 78.5 ± 26.1 nM

## CC[C@H](C)[C@H](NC(=O)[C@H](CC(N)=O)NC(=O)[C@H](CCC(=O)O)NC(=O)[C@H](CCC(=O)O)NC(=O)[C@H](CCC(=O)O)NC(C)=O)C(=O)N[C@@H](Cc1ccc(OP(=O)(O)O)cc1)C(=O)N[C@@H](CO)C(=O)N[C@H](C(=O)N1CCC[C@H]1C(=O)N[C@@H](Cc1c[nH]cn1)C(=O)N[C@@H](CC(=O)O)C(=O)N[C@@H](CO)C(=O)N[C@H](C(N)=O)[C@@H](C)O)C(C)C (Ac-EEENI[pY]SVPHDST-NH2)
[4]
  Kd: 472 ± 309 nM

## CC[C@H](C)[C@H](NC(=O)[C@@H]1CCCN1C(=O)[C@@H](NC(=O)[C@H](CCC(=O)O)NC(=O)[C@H](CCC(=O)O)NC(=O)[C@H](Cc1ccc(OP(=O)(O)O)cc1)NC(=O)[C@H](CCC(N)=O)NC(=O)[C@@H]1CCCN1C(=O)[C@H](CCC(=O)O)NC(C)=O)[C@@H](C)CC)C(=O)N[C@@H](CCCCN)C(=O)N[C@@H](CCC(N)=O)C(N)=O (Ac-EPQ[pY]EEIPIKQ-NH2)
[5]
  Kd: 6.98 ± 1.93 µM

## CC[C@H](C)[C@H](NC(=O)[C@@H]1CCCN1C(=O)[C@@H](NC(=O)[C@H](CCC(=O)O)NC(=O)[C@H](CCC(=O)O)NC(=O)[C@H](Cc1ccc(OP(=O)(O)O)cc1)NC(=O)[C@H](CCC(N)=O)NC(=O)[C@@H]1CCCN1C(=O)[C@H](CCC(=O)O)NC(C)=O)[C@@H](C)CC)C(=O)N[C@@H](Cc1ccc(O)cc1)C(=O)N[C@@H](CC(C)C)C(=O)N[C@@H](CCCCN)C(N)=O (Ac-EPQ[pY]EEIPIYLK-NH2)
[6]
  Kd: 488 ± 188 nM
[7]
  Kd: 31.8 ± 2.15 nM
[8]
  Kd: 234 ± 37.6 nM

## CC(=O)N[C@@H](CCC(=O)O)C(=O)N[C@@H](CCC(N)=O)C(=O)N[C@@H](CC(=O)O)C(=O)N1CCC[C@H]1C(=O)N[C@@H](CCC(N)=O)C(=O)N[C@@H](CCC(=O)O)C(=O)N[C@H](C(=O)N[C@H](C(=O)N[C@@H](Cc1ccc(OP(=O)(O)O)cc1)C(=O)N[C@@H](C)C(=O)N[C@@H](CCC(N)=O)C(=O)N[C@@H](CC(C)C)C(=O)N[C@@H](CC(N)=O)C(=O)N[C@@H](Cc1c[nH]cn1)C(N)=O)[C@@H](C)O)C(C)C (Ac-EQDPQEVT[pY]AQLNH-NH2)
[9]
  Kd: 3.86 ± 0.864 µM

## CSCC[C@H](NC(=O)[C@H](Cc1ccc(OP(=O)(O)O)cc1)NC(=O)[C@H](CC(=O)O)NC(=O)[C@H](CO)NC(C)=O)C(=O)N[C@@H](CC(N)=O)C(=O)N[C@@H](CCSC)C(=O)N[C@H](C(=O)N1CCC[C@H]1C(=O)N[C@@H](CCCNC(=N)N)C(=O)N[C@@H](CCCNC(=N)N)C(=O)N1CCC[C@H]1C(N)=O)[C@@H](C)O (Ac-SD[pY]MNMTPRRP-NH2)
[10]
  Kd: 244 ± 73.3 nM
[11]
  Kd: 873 ± 159 nM
